Test results: BindingDB's records for PubMed 7651361 (Georgetown University, 1995)
“And” between values parts separate entries of the source, which are not always exact repeats. Identical values can stand only once.

Target: Nicotinic acetylcholine receptor (Rattus leucopus, UniProt Q62594)
Sequence (Q62594 whole entry): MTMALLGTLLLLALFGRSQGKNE

| SMILES | Ki |
| --- | --- |
| CN1[C@@H]2CC[C@H]1CC(OC(=O)[C@H](CO)c1ccccc1)C2 (stereo partly drawn) [CAS_51-55-8] | > 10 µM |
| COc1cc2c3cc1Oc1cc(ccc1O)CC1c4c(cc(OC)c(O)c4Oc4ccc(cc4)CC3[N+](C)(C)CC2)CC[N+]1(C)C (stereo not drawn) [CAS_8063-06-7] | 4.5 µM and 2.03 µM |
| C[N+](C)(C)CCCCCC[N+](C)(C)C [Hexamethoniumdibromide] | > 10 µM |
